From patent US20150005347A1, “NITROGEN-CONTAINING HETEROCYCLIC DERIVATIVE HAVING 2-IMINO GROUP AND PEST CONTROL AGENT INCLUDING THE SAME” (MEIJI SEIKA PHARMA CO., LTD., priority 2012, published 2015)
Like-named read-outs stand apart in the source and are kept apart here.

How the values were obtained:
Assay type in all cases: in vivo
[1] = system: Trigonotylus caelestialium; test: Pest control test of Trigonotylus caelestialium, wheat seedling dipping; details: Trigonotylus caelestialium
How it was run: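 Wheat seedlings (4 days post-sowing) dipped 30 s in compound in 50% acetone water with 0.05% Tween20, air-dried, then exposed to two second-instar larvae in a lidded glass tube at 25° C, water supplied from below. Larval mortality (%) = dead/(dead+survived)×100.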

Coptotermes formosanus = test: Pest control test of Coptotermes formosanus, treated filter paper; details: 168 h, read-out: mortality of insects
Protocol: Test Example 27 Pest Control Test of Coptotermes formosanus
A filter paper was allowed to be soaked in a drug solution of the compound of the present invention at a predetermined concentration, which had been prepared with acetone. The filter paper was sufficiently blow-dried and then put into a plastic petri dish, and 5 insects of Coptotermes formosanus (worker ant) were each released thereto. Thereafter, the insects were left to stand in a thermostatic chamber (16 hours of light period-8 hours of dark period) at 25° C. […] The test was performed in duplicate.
(§1) Mortality of insects(%)={number of dead insects/(number of survived insects+number of dead insects)}×100

Aulacophora femoralis = test: Pest control test of Aulacophora femoralis, cucumber leaf disk foliar spray
Protocol: Test Example 4 Pest Control Test of Aulacophora femoralis
(§2) A leaf disk having a diameter of 2.8 cm was cut out from a cucumber in pot culture, and a drug solution of the compound of the present invention at a predetermined concentration, which had been prepared so as to be a 50% acetone water (0.05% Tween20 available), was sprayed to the leaf disk. After an air drying process, adults were released thereto. Thereafter, the adults were left to stand in a thermostatic chamber (16 hours of light period-8 hours of dark period) at 25° C. […] Test in duplicate.
Mortality of adults(%)={number of dead adults/(number of survived adults+number of dead adults)}×100

Ctenocephalides felis = test: Pest control test of Ctenocephalides felis on the body surface of a dog; details: 72 h, read-out: mortality of insects
Protocol: Test Example 26 Pest Control Test of Ctenocephalides felis
Three petri dishes with a diameter of 9 cm and a height of 1 cm were adhered to the back of a dog. Compound 1-20 of the present invention was dissolved in ethanol so as to be 5.35 mg/mL, and the mixture was added dropwise to the body surface of the dog in the petri dish. The petri dish was sufficiently dried, and then twenty insects of Ctenocephalides felis were released thereto. Each dog was housed in a cage and reared under conditions of 10 hours of light period and 14 hours of dark period at 23° C. Three days after the release, the petri dishes were detached therefrom to measure the numbers of living and dead insects of Ctenocephalides felis and blood-sucking individuals, and the mortality of insects was calculated according to the following equation.
as §1

Plutella xylostella = Plutella xylostella control test, cabbage leaf disk foliar spray; details: Plutella xylostella, foliar
How it was run: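 Cabbage leaf disks (5.0 cm) were sprayed with compound in 50% acetone water with 0.05% Tween20, air-dried, then infested with second instar larvae. Disks were held at 25° C under 16 h light/8 h dark, in duplicate. Percent larval mortality was calculated as dead over total larvae.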

Spodoptera litura = test: Pest control test against Spodoptera litura, cabbage leaf disk foliar spray; details: Spodoptera litura, foliar
Protocol: Test Example 2 Pest Control Test Against Spodoptera litura
as §2, with “of 5.0” for “of 2.8”, “a cabbage” for “a cucumber”, “process, third instar larvae” for “process, adults”, “the larvae” for “the adults”
(§3) Mortality of larvae(%)={number of dead larvae/(number of survived larvae+number of dead larvae)}×100

[2] = system: Sogatella furcifera exhibiting drug resistance to fipronil; test: Foliar spray test, Sogatella furcifera exhibiting drug resistance to fipronil; details: 96 h, read-out: mortality of larvae
Protocol: Test Example 17 Pest Control Test of Sogatella furcifera
A drug solution of the compound of the present invention at a predetermined concentration, which had been prepared so as to be a 10% acetone water (0.05% Tween20 available), was foliar sprayed to a rice seedling in pot culture. […] Thereafter, the larvae were left to stand in a thermostatic chamber (16 hours of light period-8 hours of dark period) at 25° C. […] Test in duplicate.
as §3
Further, for the origin of test pests, insects of Sogatella furcifera collected outdoors within the city of Odawara in 2010 were used.

housefly instar larvae = test: Pest control test of housefly instar larvae, treated bait; details: Musca domestica, read-out: mortality of larvae, chrysalises and adults
Protocol: Test Example 22 Pest Control Test of Housefly Instar Larvae
Compound 1-20 was blended with an extremely small amount of DMSO, and then the resulting mixture was dissolved in deionized water to adjust the drug solution. 10 ml of the drug solution adjusted to be 30 ppm was added to 10 g of powder in which wheat bran, MF feed (Oriental Yeast Co., Ltd.) and dry yeast had been mixed in a ratio of 25:5:1, and the mixture was mixed well to prepare a bait for housefly instar larvae. A 50 ml Falcon tube was slightly filled with the bait including the compound, and 20 eggs were released thereto. The mouth of the Falcon tube was covered with a mesh-topped lid, and the tube was allowed to stand at 25° C. Twenty days after the drug treatment, the numbers of instar larvae, chrysalises and adults were measured, and the mortality of larvae, chrysalises and adults was calculated by the following equation. The test was performed by repeating each treatment twice.
Mortality of larvae,chrysalises and adults(%)={number of dead larvae,chrysalises and adults/(number of survived larvae,chrysalises and adults+number of dead larvae,chrysalises and adults)}×100

[3] = 72 h, read-out: mortality of larvae
[4] = read-out: % Mortality, Test Example8 Trigonotylus caelestialium
[5] = read-out: % Mortality, Test Example4 Aulacophora femoralis
[6] = read-out: % Mortality, Test Example1 Plutella xylostella

## FC(F)(F)C(=S)/N=c1\ccccn1Cc1ccc(Cl)nc1 [Compound 1-20, N-[1-((6-chloropyridin-3-yl)methyl)pyridin-2(1H)-ylidene]-2,2,2-trifluoroethanethioamide]
[1]; [3]
  mortality at 10 ppm: ≥ 80%
  mortality at 50 ppm: ≥ 80%
[1]; [4]
  mortality at 2 ppm: 50%
  mortality at 10 ppm: 100%
  mortality at 50 ppm: 100%
Coptotermes formosanus
  mortality at 0.5 µg/cm2: 100%
Aulacophora femoralis; 72 h, read-out: mortality of adults
  mortality at 10 ppm: ≥ 80%
Aulacophora femoralis; [5]
  mortality at 1.25 ppm: 100%
  mortality at 5 ppm: 100%
Ctenocephalides felis
  mortality at 5350 µg/mL: 100%
Plutella xylostella; [3]
  mortality at 100 ppm: ≥ 80%
Plutella xylostella; [6]
  mortality at 5 ppm: 50%
  mortality at 20 ppm: 100%
  mortality at 100 ppm: 100%
Spodoptera litura; [3]
  mortality at 100 ppm: ≥ 80%
Spodoptera litura; read-out: % Mortality, Test Example2 Spodoptera litura
  mortality at 100 ppm: 90%
[2]
  mortality at 20 ppm: ≥ 80%
Housefly instar larvae
  mortality at 30 ppm: 100%
